According to paper PMC6655611, “The effect of amantadine on an ion channel protein from Chikungunya virus” (PLoS Neglected Tropical Diseases, 2019):

Columns and labels:
CHIKV 6K (GST-6K) = target: T1, CHIKV 6K (GST-6K) (Chikungunya virus strain Senegal 37997, UniProt Q5XXP3); assay: planar lipid bilayer electrophysiology; also liposome dye release and DLS fusion assay; type: biochemical; details: 1 uM amantadine; 2.6 ng/ul GST-6K in DPhPC/cholesterol bilayer, 500 mM KCl, 5 mM MgCl2, 10 mM HEPES pH 7.4, 24-25 C, -70 and +70 mV; direct binding not measured
T1 construct: mature 6K cut from structural polyprotein C-E3-E2-6K-E1; N-terminal GST tag kept (pGEX-6P2), E. coli Rosetta pLysS

SEC = target: the molecule itself; assay: SEC

## NC12CC3CC(CC(C3)C1)C2 [amantadine]
CHIKV 6K (GST-6K)
  planar lipid bilayer electrophysiology; also liposome dye release and DLS fusion: This clearly indicates that amantadine abolishes the ion channel activity of CHIKV 6K

B1: GST-6K (fusion of Chikungunya virus 6K with Glutathione S Transferase) (natural protein)
chain: ATYYEAAAYLWNEQQPLFWLQALIPLAALIVLCNCLKLLPCCCKTLAFLAVMSIGAHTVSA
notes: Monomer MW printed as 33.5 kDa; The GST tag was not removed; also called CHIKV 6K; recombinant GST-6K; not shown: GST, N-terminal, kept
SEC
  stoichiometry N: 6
